One test concerns mast cell. The settings on record: through MRGPRs; cited from earlier work. The source says: In particular, MRGPRX2 and the mouse ortholog Mrgprb2 are receptors for many cationic molecules ([22]–[25]). Activation of MRGPRs on mast cells can cause immunoglobulin E–independent allergic reactions (pseudo-allergy) including extravasation, itch, and pain ([22], [26]). Some human and tick β-defensins can activate not only MRGPRX2/Mrgprb2 but also MRGPRX1/Mrgprc11, which are expressed on sensory neurons ([27]).

The test system of another test is DRG neurons. The experiment in a line: Calcium imaging of dissociated DRG neurons expressing GCaMP6f. It is filed as cell-based, mouse. The settings on record: chloroquine 100 μM, histamine 100 μM, capsaicin 10 μM, sequential challenge. As for the experimental part: Primary cultures of DRG neurons were generated from C57BL/6N mice as described previously ([65]). […] Imaging was performed with an ORCA-Flash 4.0 […] digital complementary metal-oxide semiconductor camera (Hamamatsu, Bridgewater, NJ) at 1 Hz. Fluorescence intensity in hand-drawn regions of interest was extracted using HCImage (Hamamatsu) and plotted against time. The R package […] was used to generate a heatmap plot to visualize fluorescence signals in all the neurons.

For another test, the system named is Mrgpra3 DRG neurons. Put plainly: Whole-cell patch clamp of Mrgpra3-Cre-eGFP DRG neurons. It is filed as cell-based, mouse. As to conditions: chloroquine 100 μM, pH 7.4.

This is an account of results in paper PMC9200282, “GPR15L is an epithelial inflammation-derived pruritogen” (Science Advances, 2022).

Experimental for Mrgpra3 DRG neurons: Whole-cell patch clamp was performed on Mrgrpa3-Cre-eGFP neurons as previously described ([67]). Briefly, DRG neurons collected from Mrgpra3-Cre-eGFP mice were cultured on coverslips for 48 to 72 hours. Whole-cell current clamp recordings were performed on dissociated DRG neurons expressing eGFP. Data were recorded with an Axon 700B amplifier and pCLAMP 11 software (Molecular Devices, Sunnyvale). Pipette electrodes were pulled with P-97 microelectrode puller (Sutter Instrument) from borosilicate glass (World Precision Instruments Inc.) with resistances of 2 to 4 megohms. The extracellular solution contained 140 mM NaCl, 4 mM KCl, 2 mM CaCl2, 1 mM MgCl2, 10 mM Hepes, and 10 mM glucose with a pH of 7.4 and an osmolality of 300 mosm/kg. The pipette solution contained 140 mM KCl, 1 mM MgCl2, 1 mM EGTA, 10 mM Hepes, 3 mM adenosine 5′-triphosphate, and 0.5 mM guanosine 5′-triphosphate with a pH of 7.4 and an osmolality of 300 mosm/kg.

In the case of “LL-37: cationic antimicrobial peptide, cathelicidin (LLGDFFRKSKEKIGKEFKRIVQRIKDFLRNLVPRTES; Antibacterial peptide LL-37; UniProt P49913 134-170, looked up)”, the mast cell degranulation entry in the test on mast cell was “can cause mast cell degranulation”.

For `CCN(CC)CCCC(C)Nc1ccnc2cc(Cl)ccc12` (centres unmarked) [chloroquine], the “response of Gpr15l-responsive DRG neurons to other pruritogens/capsaicin” value (from here on “response … to other pruritogens/capsaicin”) with DRG neurons is on record as “The majority of these neurons also responded”. Further, in the test with Mrgpra3 DRG neurons, the “neurons firing action potentials” value was 7/8.

For the molecule `NCCc1c[nH]cn1` [histamine], the “response … to other pruritogens/capsaicin” value in the test with DRG neurons is on record as “The majority of these neurons also responded”.

For the molecule `COc1cc(CNC(=O)CCCC/C=C/C(C)C)ccc1O` [capsaicin], the “response … to other pruritogens/capsaicin” value in the test with DRG neurons is given as “The majority of these neurons also responded”.
